Results: PubChem BioAssay (NCI)
Values joined by “and” are separate entries in the source; they are usually repeats but may differ in a detail not shown here. Equal values may be shown once.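 Assay format: 96-well plates, 48-hour exposure. Abbreviation: GI50, concentration required for 50% inhibition of growth. The concentration for full growth arrest is given as TGI.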

Legend:
Experiment in all cases: growth of human tumour cells (NCI), 48 h
A549 NSCLC = test system: A549 NSCLC
M14 melanoma = test system: M14 melanoma
SF-268 CNS = test system: SF-268 CNS
CCRF-CEM leukemia = test system: CCRF-CEM leukemia
COLO 205 colon = test system: COLO 205 colon
MOLT-4 leukemia = test system: MOLT-4 leukemia
NCI-H460 lung = test system: NCI-H460 lung
OVCAR-4 ovarian = test system: OVCAR-4 ovarian
A498 renal = test system: A498 renal
NCI-H226 lung = test system: NCI-H226 lung

SMILES | TGI (A549 NSCLC) [µM] | TGI (M14 melanoma) [µM] | TGI (SF-268 CNS) | TGI (CCRF-CEM leukemia) | TGI (COLO 205 colon) [µM] | TGI (MOLT-4 leukemia) [µM] | TGI (NCI-H460 lung) | TGI (OVCAR-4 ovarian) [µM] | TGI (A498 renal) [µM] | TGI (NCI-H226 lung) | GI50 (A549 NSCLC) | GI50 (M14 melanoma) [µM] | GI50 (SF-268 CNS) | GI50 (CCRF-CEM leukemia) | GI50 (MOLT-4 leukemia) | GI50 (NCI-H460 lung) | GI50 (NCI-H226 lung) [µM] | GI50 (COLO 205 colon) [µM] | GI50 (OVCAR-4 ovarian) [µM] | GI50 (A498 renal) [µM]
O=C(O)c1ccccc1C1c2ccc(Cl)cc2Oc2cc(Cl)ccc21 | > 100 | > 100 | > 100 µM | > 100 µM | > 100 | > 100 | > 100 µM | > 100 |  |  |  |  |  |  |  |  |  |  |  | 
O=C(NCCCl)NCc1ccccc1 | > 100 |  | > 100 µM | > 100 µM | > 100 | > 100 | > 100 µM | > 100 | > 100 | > 100 µM |  |  |  |  |  |  |  |  |  | 
C=C1CCC2(C(C)=O)COC1(C)O2 (configuration not stated) | > 100 | > 100 |  | > 100 µM | > 100 | > 100 | > 100 µM |  |  | > 100 µM |  |  |  |  |  |  |  |  |  | 
O=C1C(Cl)C(c2ccc([N+](=O)[O-])cc2)N1n1cnc2ccccc2c1=O (configuration not stated) | > 100 | > 100 | 97.3 µM | > 100 µM | > 100 | > 100 | > 100 µM | 25.2 |  | > 100 µM |  |  |  |  |  |  |  |  |  | 
O=c1sc(-c2nc3ccccc3[nH]2)c(/N=C/c2ccccc2)n1-c1ccccc1 | > 100 | > 100 | > 100 µM | > 100 µM | > 100 | > 100 |  | 26.7 | > 100 | 38.3 µM |  |  |  |  |  |  |  |  |  | 
Cc1cc2c(C)nn(Cc3ccccc3Cl)c2c(C#N)c1C | > 100 |  | > 100 µM | > 100 µM | > 100 | > 100 | > 100 µM |  |  | > 100 µM |  |  |  |  |  |  |  |  |  | 
COc1ccc(OC)c(-c2cc(=O)c3cc4c(cc3[nH]2)OCO4)c1 | > 71.3 | > 100 | > 100 µM | > 100 µM | 7.93 | > 84.9 | > 37.2 µM | > 100 |  | 55.6 µM |  |  |  |  |  |  |  |  |  | 
COc1cc([C@@H]2c3cc4c(cc3[C@@H](NC(=O)c3ccc(OC(C)=O)cc3)C3COC(=O)[C@@H]32)OCO4)cc(OC)c1O (some centres not stated) | 10.6 | 9.22 | > 100 µM | > 100 µM | 35.7 | 2.93 |  | > 100 | 8.75 | 4.46 µM |  |  |  |  |  |  |  |  |  | 
O=C1C(=Cc2ccc([N+](=O)[O-])o2)C(=O)N(CCc2ccccc2)S(=O)(=O)N1CCc1ccccc1 | > 100 | 29 | 57.8 µM | > 100 µM | 36.9 | 56.6 | > 100 µM | 30 |  | 41.4 µM |  |  |  |  |  |  |  |  |  | 
O=C(O)CCCc1cc2c(s1)-c1cccc3cccc-2c13 | > 100 | > 100 | > 100 µM |  | 42.3 | 60.8 | > 100 µM | > 100 |  | > 100 µM |  |  |  |  |  |  |  |  |  | 
COC1C(C)OC(OC2CC(C)(O)Cc3cc4c(c(O)c32)C(=O)c2c(O)cc3c(c2C4=O)OC2OC3(C)C(O)C(N(C)C)C2O)C(OC)C1(C)OC (configuration not stated) |  |  | 1.81 µM and 1.03 µM | 0.872 µM and 1.32 µM |  |  | 1.86 µM and 0.233 µM | 1.61 |  | 0.395 µM and 0.113 µM | 0.0835 µM and 0.0476 µM | 0.141 | 0.0512 µM and 0.0161 µM | 0.0584 µM and 0.0612 µM | 0.0366 µM and 0.02 µM | 0.0303 µM and 0.0155 µM | 0.0198 |  |  | 
C=CCCCC(O)c1ccc(C(O)c2cnc3ccccc3c2)o1 (configuration not stated) | > 100 | 41.3 | > 100 µM | 86.7 µM | > 100 | 82 | > 100 µM | > 100 |  | 71.5 µM | 31 µM | 19.6 | 32.5 µM | 29.4 µM | 32.1 µM | 26.9 µM | 30.8 | 33.7 | > 100 | 
CCOC(=O)CP(=S)(S)c1ccccc1 (configuration not stated) | > 100 |  | > 100 µM | > 100 µM | > 100 | > 100 | > 100 µM | > 100 | > 100 | > 100 µM |  |  |  |  |  |  |  |  |  | 
C[C@H]1CCC2C(CN3CCCCC3)C(=O)OC2[C@]2(C)C(=O)CC(N3CCCCC3)C12O (some centres not stated) | 90.8 |  | 44.8 µM | 10.1 µM | 18.6 | 10.9 | 32.6 µM |  | 12.8 | 6.73 µM |  |  |  |  |  |  |  |  |  | 
COc1cc(OC)c(/C=C/C(=O)c2c(O)cc(OC)c(C3CCN(C)CC3)c2OC)c(OC)c1 | 2.97 | 3.05 | 3.29 µM | 2.78 µM | 3.23 | 3.61 |  | 3 | 3.02 |  | 1.57 µM | 1.67 | 1.63 µM | 1.18 µM | 1.63 µM |  |  | 1.8 | 1.4 | 1.6
O=C(CC(=O)N1N=C(c2ccccc2)C(N=Nc2ccccc2Cl)C1=O)Nc1ccccc1Cl (configuration not stated) | > 100 | > 100 | > 100 µM |  | > 100 | > 100 | > 100 µM | 63.2 |  | > 100 µM |  |  |  |  |  |  |  |  |  | 

SMILES | TGI (A549 NSCLC) [µM] | TGI (M14 melanoma) [µM] | TGI (SF-268 CNS) | TGI (CCRF-CEM leukemia) | TGI (COLO 205 colon) [µM] | TGI (MOLT-4 leukemia) [µM] | TGI (NCI-H460 lung) | TGI (OVCAR-4 ovarian) [µM] | TGI (A498 renal) [µM] | TGI (NCI-H226 lung) | GI50 (A549 NSCLC) | GI50 (M14 melanoma) [µM] | GI50 (SF-268 CNS) | GI50 (CCRF-CEM leukemia) | GI50 (MOLT-4 leukemia) | GI50 (NCI-H460 lung) | GI50 (NCI-H226 lung) [µM] | GI50 (COLO 205 colon) [µM] | GI50 (OVCAR-4 ovarian) [µM] | GI50 (A498 renal) [µM]
COc1ccc2c(c1)CC1N(C)CCC13CCCCC23 (configuration not stated) | > 100 | > 100 | > 100 µM | > 100 µM | > 100 | > 100 | > 100 µM | > 100 |  | > 100 µM |  |  |  |  |  |  |  |  |  | 
COc1cc(CC2C(=O)OCC2[C@@H](OC(C)=O)c2ccc3c(c2)OCO3)c(Br)c(OC)c1OC (some centres not stated) | > 100 | > 100 | > 100 µM | > 100 µM | > 100 | > 100 | > 100 µM | > 100 |  |  |  |  |  |  |  |  |  |  |  | 
CSCC(COC(C)=O)(CSC)c1ccncc1 | > 100 | > 100 | > 100 µM | > 100 µM | > 100 | > 100 | > 100 µM | > 100 | > 100 |  |  |  |  |  |  |  |  |  |  | 
NNC(=S)NN/C=C(\C=Nc1ccccc1)[N+](=O)[O-] | > 100 | > 100 | > 100 µM |  | > 100 |  |  | > 100 |  | > 100 µM |  |  |  |  |  |  |  |  |  | 
COc1cc(=O)oc(/C=C/CO)c1C | > 100 | > 100 | > 100 µM | > 100 µM | > 100 | > 100 |  | > 100 | > 100 | > 100 µM |  |  |  |  |  |  |  |  |  | 
COC(=O)C1=Cc2cn(S(=O)(=O)c3ccc(C)cc3)c3cccc(c23)C(C=C(C)C)N1C(C)=O (configuration not stated) | > 100 | > 100 | > 100 µM | 77.4 µM | 18.3 | 44.9 |  | > 100 | > 100 | > 100 µM |  |  |  |  |  |  |  |  |  | 
COC(=O)[C@H](C)[C@@H]1CC[C@](C)(CCC2=C(C)CCCC2(C)C)OO1 | > 25 | > 25 | > 25 µM | > 25 µM | > 25 | > 25 | > 25 µM | > 25 |  |  |  |  |  |  |  |  |  |  |  | 
COc1cc2oc(-c3ccc(O)cc3)cc(=O)c2c(OC)c1O | > 100 | > 100 | > 100 µM | > 100 µM | > 100 | > 100 | > 100 µM | > 100 |  | > 100 µM |  |  |  |  |  |  |  |  |  | 
O=c1[nH]c(-c2ccc([N+](=O)[O-])cc2)nc2ccc(Cl)cc12 | > 100 |  | > 100 µM |  | > 100 | > 100 |  |  |  |  |  |  |  |  |  |  |  |  |  | 
NCCCCCCCCCn1c2c(c3ccccc3c1=O)C(=O)c1ccccc1-2 | > 50 | 18 | 31.5 µM | > 50 µM | 25 | 40.4 | 14.2 µM | 25.9 | 16.4 |  | 9.75 µM | 9.67 | 11.8 µM | 4.14 µM | 4.1 µM | 2.8 µM |  | 10 | 10.3 | 7.74
CC(O)c1ccc(C(O)/C(=N\NC(=O)c2ccncc2)c2nc3ccc([N+](=O)[O-])cc3[nH]c2=O)cc1 (configuration not stated) | > 100 | > 100 | > 100 µM | > 100 µM | > 100 | > 100 | > 100 µM | > 100 |  | > 100 µM |  |  |  |  |  |  |  |  |  | 
O=C1NC2OC(CO)C(O)C(O)C2O1 (configuration not stated) | > 100 | > 100 | > 100 µM | > 100 µM | > 100 | > 100 | > 100 µM | > 100 | > 100 |  |  |  |  |  |  |  |  |  |  | 
CCN(CC)CCNC(=O)C(Cl)=C1C(Cl)=C(Cl)C(Cl)=C1Cl | 76.9 |  | 22 µM | > 100 µM | 13.4 |  | 11.1 µM | 15.6 | 12.5 | 35.8 µM | 4.22 µM |  | 3.25 µM | 3.15 µM |  | 2.71 µM | 4.08 | 4.21 | 4.17 | 2.59
CCOC(=O)Cn1c(=O)[nH]c(=O)c2[nH]cnc21 | > 100 | > 100 | > 100 µM | > 100 µM | > 100 | > 100 | > 100 µM | > 100 | > 100 |  |  |  |  |  |  |  |  |  |  | 
Cc1ccc(S(=O)(=O)OC2CSSCC2OS(=O)(=O)c2ccc(C)cc2)cc1 (configuration not stated) | 31.9 | 25.1 | 31.9 µM | 28.3 µM | 26.6 | 7.61 | 31.8 µM | 23.3 |  | 33.6 µM |  |  |  |  |  |  |  |  |  | 
C1C[S][Ge]2([S]CCS1)[S]CCSCC[S]2 |  | > 100 | > 100 µM | > 100 µM | > 100 | > 100 |  | > 100 | > 100 | > 100 µM |  | > 100 | > 100 µM | > 100 µM | > 100 µM |  | > 100 | > 100 | > 100 | > 100
